Source: ChEMBL document CHEMBL5236661, “A new selective inhibitor for IMP-1 metallo-β-lactamase, 3Z,5E-octa-3,5-diene-1,3,4-tricarboxylic acid-3,4-anhydride” (Bioorg Med Chem, 2023)
In brackets after ≈: the same amount, converted by molar mass. Activity calls are given as the source filed them. No cut-off for these calls is given here.

Legend:
[1] = Inhibition of bacterial Metallo-beta-lactamase IMP-1 using nitrocefin as substrate pre-incubated for 15 mins followed by substrate addition by microplate reader; parameters: species or system Bacteria
[2] = system: Escherichia coli; assay: Antibacterial activity against Escherichia coli KB366 expressing IMP-1 assessed as inhibition of bacterial growth at 100 ug in presence of meropenem incubated overnight by paper disk method; format: functional; conditions: read-out: IZ
[3] = system: Escherichia coli; assay: Antibacterial activity against Escherichia coli KB366 expressing IMP-1 assessed as inhibition of bacterial growth at 30 ug in presence of meropenem incubated overnight by paper disk method; format: functional; conditions: read-out: IZ
[4] = system: Escherichia coli; assay: Antibacterial activity against Escherichia coli KB366 expressing IMP-1 assessed as inhibition of bacterial growth at 10 ug in presence of meropenem incubated overnight by paper disk method; format: functional; conditions: read-out: IZ
[5] = system: Escherichia coli; assay: Antibacterial activity against Escherichia coli KB366 expressing IMP-1 assessed as inhibition of bacterial growth at 3 ug in presence of meropenem incubated overnight by paper disk method; format: functional; conditions: read-out: IZ
[6] = system: Escherichia coli; assay: Antibacterial activity against Escherichia coli KB366 expressing IMP-1 assessed as inhibition of bacterial growth at 1 ug in presence of meropenem incubated overnight by paper disk method; format: functional; conditions: read-out: IZ
[7] = system: Escherichia coli; assay: Antibacterial activity against Escherichia coli KB366 expressing IMP-1 assessed as inhibition of bacterial growth at 0.3 ug in presence of meropenem incubated overnight by paper disk method; format: functional; conditions: for zone of inhibition at 0.3 µg/disc: read-out: IZ
[8] = system: Escherichia coli; assay: Antibacterial activity against Escherichia coli KB366 expressing IMP-1 assessed as inhibition of bacterial growth at 0.1 ug in presence of meropenem incubated overnight by paper disk method; format: functional; conditions: for inhibition zone (IZ): dose 0.1 µg
[9] = system: Escherichia coli; assay: Antibacterial activity against Escherichia coli KB366 expressing IMP-1 assessed as inhibition of bacterial growth at 0.03 ug in presence of meropenem incubated overnight by paper disk method; format: functional; conditions: for inhibition zone (IZ): dose 0.03 µg
[10] = system: Escherichia coli; assay: Antibacterial activity against Escherichia coli KB366 expressing IMP-1 assessed as inhibition of bacterial growth at 0.01 ug in presence of meropenem incubated overnight by paper disk method; format: functional; conditions: for inhibition zone (IZ): dose 0.01 µg
[11] = system: Escherichia coli; assay: Antibacterial activity against Escherichia coli KB366 expressing IMP-1 assessed as inhibition of bacterial growth at 100 ug in absence of meropenem incubated overnight by paper disk method; format: functional, organism-based; conditions: dose 100.0 µg
[12] = system: Escherichia coli; assay: Antibacterial activity against Escherichia coli KB366 expressing IMP-1 assessed as inhibition of bacterial growth at 30 ug in absence of meropenem incubated overnight by paper disk method; format: functional, organism-based; conditions: dose 30.0 µg
[13] = system: Escherichia coli; assay: Antibacterial activity against Escherichia coli KB366 expressing IMP-1 assessed as inhibition of bacterial growth at 10 ug in absence of meropenem incubated overnight by paper disk method; format: functional, organism-based; conditions: dose 10.0 µg
[14] = system: Escherichia coli; assay: Antibacterial activity against Escherichia coli KB366 expressing IMP-1 assessed as inhibition of bacterial growth at 3 ug in absence of meropenem incubated overnight by paper disk method; format: functional, organism-based; conditions: dose 3.0 µg
[15] = system: Escherichia coli; assay: Antibacterial activity against Escherichia coli KB366 expressing IMP-1 assessed as inhibition of bacterial growth at 1 ug in absence of meropenem incubated overnight by paper disk method; format: functional, organism-based; conditions: dose 1.0 µg
[16] = system: Escherichia coli; assay: Antibacterial activity against Escherichia coli KB366 expressing IMP-1 assessed as inhibition of bacterial growth at 0.3 ug in absence of meropenem incubated overnight by paper disk method; format: functional, organism-based; conditions: dose 0.3 µg
[17] = system: Escherichia coli; assay: Antibacterial activity against Escherichia coli KB366 expressing IMP-1 assessed as inhibition of bacterial growth at 0.1 ug in absence of meropenem incubated overnight by paper disk method; format: functional, organism-based; conditions: dose 0.1 µg
[18] = system: Escherichia coli; assay: Antibacterial activity against Escherichia coli KB366 expressing IMP-1 assessed as inhibition of bacterial growth at 0.03 ug in absence of meropenem incubated overnight by paper disk method; format: functional, organism-based; conditions: dose 0.03 µg
[19] = system: Escherichia coli; assay: Antibacterial activity against Escherichia coli KB366 expressing IMP-1 assessed as inhibition of bacterial growth at 0.01 ug in absence of meropenem incubated overnight by paper disk method; format: functional, organism-based; conditions: dose 0.01 µg
[20] = system: Pseudomonas aeruginosa; assay: Antibacterial activity against Pseudomonas aeruginosa KB367 expressing IMP-1 assessed as inhibition of bacterial growth at 100 ug in presence of meropenem incubated overnight by paper disk method; format: functional; conditions: for zone of inhibition at 100 µg/disc: read-out: IZ
[21] = system: Pseudomonas aeruginosa; assay: Antibacterial activity against Pseudomonas aeruginosa KB367 expressing IMP-1 assessed as inhibition of bacterial growth at 30 ug in presence of meropenem incubated overnight by paper disk method; format: functional; conditions: for zone of inhibition at 30 µg/disc: read-out: IZ
[22] = system: Pseudomonas aeruginosa; assay: Antibacterial activity against Pseudomonas aeruginosa KB367 expressing IMP-1 assessed as inhibition of bacterial growth at 10 ug in presence of meropenem incubated overnight by paper disk method; format: functional; conditions: for zone of inhibition at 10 µg/disc: read-out: IZ; for inhibition zone (IZ): dose 10.0 µg
[23] = system: Pseudomonas aeruginosa; assay: Antibacterial activity against Pseudomonas aeruginosa KB367 expressing IMP-1 assessed as inhibition of bacterial growth at 3 ug in presence of meropenem incubated overnight by paper disk method; format: functional; conditions: for inhibition zone (IZ): dose 3.0 µg
[24] = system: Pseudomonas aeruginosa; assay: Antibacterial activity against Pseudomonas aeruginosa KB367 expressing IMP-1 assessed as inhibition of bacterial growth at 1 ug in presence of meropenem incubated overnight by paper disk method; format: functional; conditions: dose 1.0 µg
[25] = system: Pseudomonas aeruginosa; assay: Antibacterial activity against Pseudomonas aeruginosa KB367 expressing IMP-1 assessed as inhibition of bacterial growth at 0.3 ug in presence of meropenem incubated overnight by paper disk method; format: functional, organism-based; conditions: dose 0.3 µg
[26] = system: Pseudomonas aeruginosa; assay: Antibacterial activity against Pseudomonas aeruginosa KB367 expressing IMP-1 assessed as inhibition of bacterial growth at 0.1 ug in presence of meropenem incubated overnight by paper disk method; format: functional, organism-based; conditions: dose 0.1 µg
[27] = system: Pseudomonas aeruginosa; assay: Antibacterial activity against Pseudomonas aeruginosa KB367 expressing IMP-1 assessed as inhibition of bacterial growth at 100 ug in absence of meropenem incubated overnight by paper disk method; format: functional, organism-based; conditions: dose 100.0 µg
[28] = system: Pseudomonas aeruginosa; assay: Antibacterial activity against Pseudomonas aeruginosa KB367 expressing IMP-1 assessed as inhibition of bacterial growth at 30 ug in absence of meropenem incubated overnight by paper disk method; format: functional, organism-based; conditions: dose 30.0 µg
[29] = system: Pseudomonas aeruginosa; assay: Antibacterial activity against Pseudomonas aeruginosa KB367 expressing IMP-1 assessed as inhibition of bacterial growth at 10 ug in absence of meropenem incubated overnight by paper disk method; format: functional, organism-based; conditions: dose 10.0 µg
[30] = system: Pseudomonas aeruginosa; assay: Antibacterial activity against Pseudomonas aeruginosa KB367 expressing IMP-1 assessed as inhibition of bacterial growth at 3 ug in absence of meropenem incubated overnight by paper disk method; format: functional, organism-based; conditions: dose 3.0 µg
[31] = system: Pseudomonas aeruginosa; assay: Antibacterial activity against Pseudomonas aeruginosa KB367 expressing IMP-1 assessed as inhibition of bacterial growth at 1 ug in absence of meropenem incubated overnight by paper disk method; format: functional, organism-based; conditions: dose 1.0 µg
[32] = system: Pseudomonas aeruginosa; assay: Antibacterial activity against Pseudomonas aeruginosa KB367 expressing IMP-1 assessed as inhibition of bacterial growth at 0.3 ug in absence of meropenem incubated overnight by paper disk method; format: functional, organism-based; conditions: dose 0.3 µg
[33] = system: Pseudomonas aeruginosa; assay: Antibacterial activity against Pseudomonas aeruginosa KB367 expressing IMP-1 assessed as inhibition of bacterial growth at 0.1 ug in absence of meropenem incubated overnight by paper disk method; format: functional, organism-based; conditions: dose 0.1 µg

SMILES	IC50 [1] [µg/mL]	zone of inhibition at 100 µg/disc [2] [mm]	zone of inhibition at 10 µg/disc [4] [mm]	zone of inhibition at 3 µg/disc [5] [mm]	zone of inhibition at 1 µg/disc [6] [mm]	inhibition zone (IZ) [12]	inhibition zone (IZ) [13]	inhibition zone (IZ) [14]	inhibition zone (IZ) [15]	inhibition zone (IZ) [16]	inhibition zone (IZ) [24]	inhibition zone (IZ) [25]	inhibition zone (IZ) [26]	inhibition zone (IZ) [27]	inhibition zone (IZ) [28]	inhibition zone (IZ) [29]	inhibition zone (IZ) [30]	inhibition zone (IZ) [31]	inhibition zone (IZ) [32]	inhibition zone (IZ) [33]	other results
CC/C=C/C1=C(c2ccc(O)c(O)c2)C(=O)OC1=O	3.74 (≈ 14.4 µM)	31	23	18	16	inactive	inactive	inactive	inactive	inactive	inactive	inactive	inactive	inactive	inactive	inactive	inactive	inactive	inactive	inactive	zone of inhibition at 30 µg/disc [3]: 27 mm; zone of inhibition at 0.3 µg/disc [7]: 11 mm; inhibition zone (IZ) [8]: inactive; inhibition zone (IZ) [9]: inactive; inhibition zone (IZ) [10]: inactive; inhibition zone (IZ) [11]: inactive; inhibition zone (IZ) [17]: inactive; inhibition zone (IZ) [18]: inactive; inhibition zone (IZ) [19]: inactive; zone of inhibition at 100 µg/disc [20]: 18 mm; zone of inhibition at 30 µg/disc [21]: 14 mm; zone of inhibition at 10 µg/disc [22]: 9 mm; inhibition zone (IZ) [23]: inactive
CCCCC1=C(c2ccc(O)c(O)c2)C(=O)OC1=O	1.46 (≈ 5.57 µM)	29	22	20	17	inactive	inactive	inactive	inactive	inactive	inactive	inactive	inactive	inactive	inactive	inactive	inactive	inactive	inactive	inactive	zone of inhibition at 30 µg/disc [3]: 25 mm; zone of inhibition at 0.3 µg/disc [7]: 13 mm; inhibition zone (IZ) [8]: inactive; inhibition zone (IZ) [9]: inactive; inhibition zone (IZ) [10]: inactive; inhibition zone (IZ) [11]: inactive; inhibition zone (IZ) [17]: inactive; inhibition zone (IZ) [18]: inactive; inhibition zone (IZ) [19]: inactive; zone of inhibition at 100 µg/disc [20]: 19 mm; zone of inhibition at 30 µg/disc [21]: 14 mm; zone of inhibition at 10 µg/disc [22]: 9 mm; inhibition zone (IZ) [23]: inactive
CC/C=C/C1=C(CCC)C(=O)OC1=O	3 (≈ 15.4 µM)		24	18	17	inactive	inactive	inactive	inactive	inactive	inactive	inactive	inactive	inactive	inactive	inactive	inactive	inactive	inactive	inactive	zone of inhibition at 0.3 µg/disc [7]: 15 mm; zone of inhibition at 0.1 µg/disc ([8]; read-out: IZ): 13 mm; zone of inhibition at 0.03 µg/disc ([9]; read-out: IZ): 9 mm; zone of inhibition at 0.01 µg/disc ([10]; read-out: IZ): 9 mm; inhibition zone (IZ) [17]: inactive; inhibition zone (IZ) [18]: inactive; inhibition zone (IZ) [19]: inactive; zone of inhibition at 30 µg/disc [21]: 10 mm; inhibition zone (IZ) [22]: inactive; inhibition zone (IZ) [23]: inactive
CC/C=C/C1=C(c2ccc(OCOC)c(OCOC)c2)C(=O)OC1=O	9.49 (≈ 27.2 µM)	27	20	16	14	inactive	inactive	inactive	inactive	inactive	inactive	inactive	inactive	inactive	inactive	inactive	inactive	inactive	inactive	inactive	zone of inhibition at 30 µg/disc [3]: 23 mm; zone of inhibition at 0.3 µg/disc [7]: 11 mm; inhibition zone (IZ) [11]: inactive; inhibition zone (IZ) ([20]; dose 100.0 µg): inactive; inhibition zone (IZ) ([21]; dose 30.0 µg): inactive; inhibition zone (IZ) [22]: inactive; inhibition zone (IZ) [23]: inactive
CC/C=C/C1=C(CCC(=O)OC)C(=O)OC1=O	4.3 (≈ 18 µM)	33	26	23	19	inactive	inactive	inactive	inactive	inactive	inactive	inactive	inactive	inactive	inactive	inactive	inactive	inactive	inactive	inactive	zone of inhibition at 30 µg/disc [3]: 28 mm; inhibition zone (IZ) ([7]; dose 0.3 µg): inactive; inhibition zone (IZ) [8]: inactive; inhibition zone (IZ) [11]: inactive; inhibition zone (IZ) [17]: inactive; zone of inhibition at 100 µg/disc [20]: 20 mm; zone of inhibition at 30 µg/disc [21]: 16 mm; zone of inhibition at 10 µg/disc [22]: 11 mm; zone of inhibition at 3 µg/disc ([23]; read-out: IZ): 9 mm
